Where a name gives a salt, the structure may show the parent alone.
Tested on: anesthetized rabbits
Test: ST segment elevation by occlusion of the circumflex coronary artery in anesthetized rabbits (anti-ischemic activity, with blood pressure and heart rate)
Format: in vivo, rabbit
Conditions: for Heart rate / Mean blood pressure: 5 minutes after i.v. administration; for Heart rate / Mean blood pressure / effect on heart rate (in words): compound B 0.63 mg/kg; for effect on ST segment elevation (in words): i.v. slow bolus, compound A 0.04 mg/kg or compound B 0.63 mg/kg, 5 min before 5 min circumflex occlusion
Experimental: The anti-ischemic activity of 3-(R)-[3-(2-methoxyphenylthio)-2-(S)-methyl-propyl]amino-3,4-dihydro-2H-1,5-benzoxathiepine combined with ivabradine was evaluated in a model of ST segment elevation by occlusion of the circumflex coronary artery in anesthetized rabbits.
Male rabbits (2.2-2.5 kg) are anesthetized with pentobarbital. A catheter is placed in a carotid artery in order to continuously measure the animal's blood pressure. Blood samples are taken in order to regularly check blood gases and to modify ventilation parameters as needed. The compounds to be tested or the carriers are administered via a catheter placed in an ear vein. An electrocardiogram is recorded, also continuously, in configuration II in order to determine the variations of amplitude of the ST segment. The animal's thorax is opened and a ligature is placed around the left coronary artery (circumflex) in order to induce regional myocardial ischemia (Verscheure et al., 1995). After a period of stabilization of all hemodynamic parameters, the compounds are administered in a slow bolus (1 minute). Five minutes after the compounds are administered, the circumflex artery is occluded for 5 minutes and then the ligature is released. The heart is removed and the risk area (ligatured region of the circumflex artery) is evaluated. Four groups of rabbits are studied: • group receiving carrier: 40% polyethylene 300, 60% physiological saline; • group receiving 3-(R)-[3-(2-methoxyphenylthio)-2-(S)-methyl-propyl]amino-3,4-dihydro-2H-1,5-benzoxathiepine (compound A) at a dose of 0.04 mg/kg; • group receiving ivabradine hydrochloride (compound B) at a dose of 0.63 mg/kg; • group receiving compound A (0.04 mg/kg)+compound B (0.63 mg/kg).
The doses were selected in order to have submaximal pharmacological activities and thus to uncover potential additive or synergistic effects.

| SMILES | Heart rate (compound A 0.04 mg/kg) [bpm] | Mean blood pressure (compound A 0.04 mg/kg) [mmHg] | effect on ST segment elevation (in words) | effect on blood pressure (in words) (i.v., compound A 0.04 mg/kg) | effect on heart rate (in words) (i.v., compound A 0.04 mg/kg) |
| --- | --- | --- | --- | --- | --- |
| COc1ccccc1SC[C@@H](C)CN[C@@H]1COc2ccccc2SC1 [Compound A, 3-(R)-[3-(2-methoxyphenylthio)-2-(S)-methyl-propyl]amino-3,4-dihydro-2H-1,5-benzoxathiepine] | 275 ± 10 | 92 ± 4 | slight inhibition | without changing | without changing |
| COc1cc2c(cc1OC)CC(=O)N(CCCN(C)C[C@H]1Cc3cc(OC)c(OC)cc31)CC2 [Compound B, ivabradine hydrochloride, reference compound] | 211 ± 10 | 92 ± 3 | lower ST segment elevation | – | relatively significant and constant bradycardia |
